Experimental data from US7238706B2, “4-oxo-1-(3-substituted phenyl-1,4-dihydro-1,8-naphthyridine-3-carboxamide phosphodiesterase-4 inhibitors” (Merck Frosst Canada, Ltd., priority 2002, dated 2007).
pIC50: −log10 of the molar value.

What follows are molecules tested on TNF-α (assay: LPS-induced TNF-α assay in human whole blood). Conditions: LPS 1 μg/mL, 24 hours at 37° C., TNF-α by ELISA in plasma.
Assay type: cell-based
Protocol: Whole blood provides a protein and cell-rich milieu appropriate for the study of biochemical efficacy of anti-inflammatory compounds such as PDE4-selective inhibitors. […] Upon stimulation with LPS, activated monocytes express and secrete TNF-α up to 8 hours and plasma levels remain stable for 24 hours. Published studies have shown that inhibition of TNF-α by increasing intracellular cAMP via PDE4 inhibition and/or enhanced adenylyl cyclase activity Occurs at the transcriptional level. […] As there is little LTB4 produced during a 24 hour LPS stimulation of whole blood, an additional LPS stimulation followed by fMLP challenge of human whole blood is necessary for LTB4 synthesis by activated neutrophils. Thus, by using the same blood sample, it is possible to evaluate the potency of a compound on two surrogate markers of PDE4 activity in the whole blood by the following procedure.
Fresh blood was collected in heparinized tubes by venipuncture from healthy human volunteers (male and female). These subjects had no apparent inflammatory conditions and had not taken any NSAIDs for at least 4 days prior to blood collection. 500 μL aliquots of blood were pre-incubated with either 2 μL of vehicle (DMSO) or 2 μL of test compound at varying concentrations for 15 minutes at 37° C. This was followed by the addition of either 10 μL vehicle (PBS) as blanks or 10 μL LPS (1 μg/mL final concentration, #L-2630 (Sigma Chemical Co., St. Louis, Mo.) from E. coli, serotype 0111:B4; diluted in 0.1% w/v BSA (in PBS)). After 24 hours of incubation at 37° C., another 10 μL of PBS (blank) or 10 μL of LPS (1 μg/mL final concentration) was added to blood and incubated for 30 minutes at 37° C. The blood was then challenged with either 10 μL of PBS (blank) or 10 μL of fMLP (1 μM final concentration, #F-3506 (Sigma); diluted in 1% w/v BSA (in PBS)) for 15 minutes at 37° C. The blood samples were centrifuged at 1500×g for 10 minutes at 4° C. to obtain plasma. A 50 μL aliquot of plasma was mixed with 200 μL methanol for protein precipitation and centrifuged as above. The supernatant was assayed for LTB4 using an enzyme immunoassay kit (#520111 from Cayman Chemical Co., Ann Arbor, Mich.) according to the manufacturer's procedure. TNF-α was assayed in diluted plasma (in PBS) using an ELISA kit (Cistron Biotechnology, Pine Brook, N.J.) according to manufacturer's procedure.
In the case of `O=C(NC1CC1)c1cn(-c2cccc(-c3ccc([C@@H]4C[C@H]4C(=O)O)cc3)c2)c2ncccc2c1=O` (relative stereo) [Example 1, 2-(trans)-{3′-[3-[(Cyclopropylamino)carbonyl]-4-oxo-1,8-naphthyridin-1(4H)-yl]-1,1′-biphenyl-4-yl}cyclopropanecarboxylic acid], the pIC50 was 6.52. `O=C(NCC(F)(F)F)c1cn(-c2cccc(-c3ccc([C@@H]4C[C@H]4C(=O)O)cc3)c2)c2ncccc2c1=O` (single isomer, unassigned; (+)) [24-(+)-isomer, (+)-(trans)-2-{3′-[4-oxo-3-{[(2,2,2-trifluoroethyl)amino]carbonyl}-1,8-naphthyridin-1(4H)-yl]biphenyl-4-yl}cyclopropanecarboxylic acid] was tested, and the pIC50 was 6.80. Molecule `O=C(NCC(F)(F)F)c1cn(-c2cccc(-c3ccc(C4CC4C(=O)O)c(F)c3)c2)c2ncccc2c1=O` (single isomer, unassigned; (+)) [Example 29, (+)-(trans)-2-{3-fluoro-3′-[4-oxo-3-{[(2,2,2-trifluoroethyl)amino]carbonyl}-1,8-naphthyridin-1(4H)-yl]biphenyl-4-yl}cyclopropanecarboxylic acid] has a pIC50 of 7.00. `O=C(NC1CC1)c1cn(-c2cccc(-c3ccc(C4CC4C(=O)O)c(F)c3)c2)c2ncccc2c1=O` (single isomer, unassigned; (-)) [12-(−)-isomer, (−)-(trans)-2-{3′-[3-[(cyclopropylamino)carbonyl]-4-oxo-1,8-naphthyridin-1(4H)-yl]-3-fluoro-1,1′-biphenyl-4-yl}cyclopropanecarboxylic acid] was tested, and the pIC50 was 6.30. `O=C(NC1CC1)c1cn(-c2cccc(-c3ccc([C@H]4C[C@H]4C(=O)O)cc3)c2)c2ncccc2c1=O` (single isomer, unassigned; isomer 2) [8-(−)-isomer, 2-(cis)-{3′-[3-[(Cyclopropylamino)carbonyl]-4-oxo-1,8-naphthyridin-1(4H)-yl]-1,1′-biphenyl-4-yl}cyclopropanecarboxylic acid] showed a pIC50 of 6.80. `O=C(NC1CC1)c1cn(-c2cccc(-c3cccc(C4CC4C(=O)O)c3)c2)c2ncccc2c1=O` (stereo not shown) [Example 2, 2-{3′-[3-[(Cyclopropylamino)carbonyl]-4-oxo-1,8-naphthyridin-1(4H)-yl]-1,1′-biphenyl-3-yl}cyclopropanecarboxylic acid] gave a pIC50 of 7.00. Work on `CC(C)(CC(=O)O)c1ccc(-c2cccc(-n3cc(C(=O)NC4CC4)c(=O)c4cccnc43)c2)cc1` [Example 5, 3-{3′-[3-[(Cyclopropylamino)carbonyl]-4-oxo-1,8-naphthyridin-1(4H)-yl]-1,1′-biphenyl-4-yl}-3-methylbutanoic acid] yielded a pIC50 of 7.12. In the case of `O=C(NC1CC1)c1cn(-c2cccc(-c3ccc(C4CC4C(=O)O)c(Cl)c3)c2)c2ncccc2c1=O` (stereo not shown) [Example 17, 2-{3-Chloro-3′-[3-[(cyclopropylamino)carbonyl]-4-oxo-1,8-naphthyridin-1(4H)-yl]1,1′-biphenyl-4-yl}cyclopropanecarboxylic acid], the pIC50 was 7.05. `O=C(NCC1CC1)c1cn(-c2cccc(-c3ccc(C4CC4C(=O)O)cc3)c2)c2ncccc2c1=O` (stereo not shown) [Example 26, 2-{3′-[3-{[(Cyclopropylmethyl)amino]carbonyl}-4-oxo-1,8-naphthyridin-1(4H)-yl]-1,1′-biphenyl-4-yl}cyclopropanecarboxylic acid] gave a pIC50 of 6.80. `O=C(NC1CC1)c1cn(-c2cccc(-c3ccc(CC4(C(=O)O)CCC4)cc3)c2)c2ncccc2c1=O` [Example 30, 1-({3′-[3-[(cyclopropylamino)carbonyl]-4-oxo-1,8-naphthyridin-1(4H)-yl]biphenyl-4-yl}methyl)cyclobutanecarboxylic acid] showed a pIC50 of 5.74.
